From PubChem BioAssay (NCI)
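Each compound was tested at five concentrations against cells in 96-well plates for 48 hours. GI50: concentration for 50% inhibition of growth. At the TGI there is no net growth.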

Legend:
Test in all cases: NCI-60 cell line screen, 48 h
786-0 renal = test system: 786-0 renal
A498 renal = test system: A498 renal
HOP-62 NSCLC = test system: HOP-62 NSCLC
HS 578T breast = test system: HS 578T breast
IGROV1 ovarian = test system: IGROV1 ovarian
MDA-MB-231 breast = test system: MDA-MB-231 breast
OVCAR-4 ovarian = test system: OVCAR-4 ovarian
OVCAR-5 ovarian = test system: OVCAR-5 ovarian
RXF 393 renal = test system: RXF 393 renal
SF-268 CNS = test system: SF-268 CNS
SNB-75 CNS = test system: SNB-75 CNS
SR leukemia = test system: SR leukemia
U251 CNS = test system: U251 CNS

Work on `CCn1cc(CNc2ccc(C(=O)Nc3cc4cc(OC)c(OC)cc4c(C)n3)cc2)c(C)n1` yielded a GI50 (786-0 renal) of 28.6 µM, a TGI (786-0 renal) greater than 100 µM and a GI50 (A498 renal) of 4.29 µM. It also gave a TGI (A498 renal) greater than 100 µM, a GI50 (HOP-62 NSCLC) of 2.71 µM and a TGI (HOP-62 NSCLC) of 7.18 µM. The GI50 (HS 578T breast) was 5.32 µM, the TGI (HS 578T breast) was greater than 100 µM and the GI50 (IGROV1 ovarian) was greater than 100 µM. The TGI (IGROV1 ovarian) was greater than 100 µM, the GI50 (MDA-MB-231 breast) was greater than 100 µM and the TGI (MDA-MB-231 breast) was greater than 100 µM. For the same molecule, the GI50 (OVCAR-4 ovarian) was 3.07 µM, the TGI (OVCAR-4 ovarian) was greater than 100 µM and the GI50 (OVCAR-5 ovarian) was greater than 100 µM. For the same molecule, the TGI (OVCAR-5 ovarian) was greater than 100 µM, the GI50 (RXF 393 renal) was greater than 100 µM and the TGI (RXF 393 renal) was greater than 100 µM. It also gave a GI50 (SF-268 CNS) of 33.6 µM, a TGI (SF-268 CNS) greater than 100 µM and a GI50 (SNB-75 CNS) of 4.72 µM. It also gave a TGI (SNB-75 CNS) greater than 100 µM, a GI50 (SR leukemia) of 2.71 µM and a TGI (SR leukemia) greater than 100 µM. For the same molecule, the GI50 (U251 CNS) was 3.64 µM and the TGI (U251 CNS) was greater than 100 µM.
